In US8268848B2, “Cyclopropane compound” (Eisai R&D Management Co., Ltd., priority 2010, dated 2012) one finds IC50 data, which are given here for 16 compounds.

One assay has as its target T1, OX1 (Homo sapiens, UniProt O43613).
T1 sequence (O43613 1-425): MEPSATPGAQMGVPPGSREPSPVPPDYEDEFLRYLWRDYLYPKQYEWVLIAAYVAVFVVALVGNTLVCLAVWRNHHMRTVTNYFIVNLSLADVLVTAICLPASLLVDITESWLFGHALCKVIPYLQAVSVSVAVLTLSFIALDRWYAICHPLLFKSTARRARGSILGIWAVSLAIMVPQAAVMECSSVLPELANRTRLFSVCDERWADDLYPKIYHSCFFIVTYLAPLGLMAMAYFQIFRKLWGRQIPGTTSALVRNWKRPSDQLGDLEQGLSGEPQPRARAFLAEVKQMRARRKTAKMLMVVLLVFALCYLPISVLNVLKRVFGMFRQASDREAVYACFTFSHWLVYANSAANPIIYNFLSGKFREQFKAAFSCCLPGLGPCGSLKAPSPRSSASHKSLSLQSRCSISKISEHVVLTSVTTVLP
The assay is described as follows: Measurement of orexin receptor-binding ability ([125I]-OX-A, cell membranes, OX1). On the set-up: expressed in transfected cells; host or cells: CHO cells (membrane preparation).

Another assay deals with T2, OX2 (Homo sapiens, UniProt O43614).
T2 sequence (O43614 1-444): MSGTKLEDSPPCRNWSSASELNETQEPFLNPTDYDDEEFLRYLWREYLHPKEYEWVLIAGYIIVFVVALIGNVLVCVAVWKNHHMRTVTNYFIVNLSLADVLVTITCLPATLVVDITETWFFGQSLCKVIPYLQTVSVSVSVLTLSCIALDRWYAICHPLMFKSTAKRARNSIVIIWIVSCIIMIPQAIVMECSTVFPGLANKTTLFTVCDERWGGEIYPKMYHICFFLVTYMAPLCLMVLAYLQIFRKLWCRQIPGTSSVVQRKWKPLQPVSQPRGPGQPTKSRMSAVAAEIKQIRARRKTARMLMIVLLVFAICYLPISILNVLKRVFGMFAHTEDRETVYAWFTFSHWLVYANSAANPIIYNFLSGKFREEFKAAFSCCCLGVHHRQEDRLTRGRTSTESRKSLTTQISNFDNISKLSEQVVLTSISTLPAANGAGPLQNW
The assay is described as follows: Measurement of orexin receptor-binding ability ([125I]-OX-A, cell membranes, OX2). On the set-up: expressed in transfected cells; host or cells: CHO cells (membrane preparation). The settings on record: membranes of recombinant CHO cells expressing OX2, 0.2 nM [125I]-OX-A; for IC50: OX2 (IC50) nM; for pIC50: read-out: OX2 (IC50).

Setting [1] is: membranes of recombinant CHO cells expressing OX1, 0.2 nM [125I]-OX-A, read-out: OX1 (IC50).

Usually pIC50 stands for the IC50 on a negative log10 scale, so that one unit is a factor of ten. As a reminder, the IC50 is the concentration that gives 50% inhibition.

pIC50: −log10 of the molar value. Where two headings read alike, the source gives them in different places.

`Cc1ncc(OC[C@@]2(c3cc(F)cc(F)c3)C[C@H]2C(=O)Nc2ccc(F)cn2)c(C)n1` [Example 133, (1R,2S)-2-(3,5-difluorophenyl)-2-{[(2,4-dimethylpyrimidin-5-yl)oxy]methyl}-N-(5-fluoropyridin-2-yl)cyclopropanecarboxamide]: the pIC50 on OX1 is 8.15. Besides, the IC50 on OX2 worked out at 3 nM.
Turning to `Cc1ncc(OC[C@@]2(c3ccccc3)C[C@H]2C(=O)Nc2nc(C)c(C)s2)c(C)n1` [Example 4], the pIC50 at OX1 (setting [1]) is 7.26; at OX2 it was 7.42.
Take `Cc1ncc(N(C)C[C@@]2(c3cccc(F)c3)C[C@H]2C(=O)Nc2ccc(F)cc2)c(C)n1` [Example 294]: the pIC50 was below 6.70 on OX1 (setting [1]) and 7.85 at OX2.
For `Cc1ncc(OC[C@@]2(c3cccc(F)c3)C[C@H]2c2nc3ccc(Cl)cc3c(=O)[nH]2)c(C)n1` [Example 311] the same measures were 7.64 and 8.51.
Take `Cc1ncc(CC[C@@]2(c3ccccc3)C[C@H]2C(=O)Nc2cc(C)c(F)cn2)c(C)n1` [Example 292, (1R,2R)-2-[2-(2,4-dimethylpyrimidin-5-yl)ethyl]-N-(5-fluoro-4-methylpyridin-2-yl)-2-phenylcyclopropanecarboxamide]: the pIC50 is 6.62 at OX1 (setting [1]) and 7.47 on OX2.
For `Cc1ncc(OC[C@@]2(c3ccc(F)cc3)C[C@H]2C(=O)Nc2cc(C)c(F)cn2)c(C)n1` [Example 111, (1R,2S)-2-{[(2,4-dimethylpyrimidin-5-yl)oxy]methyl}-N-(5-fluoro-4-methylpyridin-2-yl)-2-(4-fluorophenyl)cyclopropanecarboxamide] the same measures were 7.47 and 8.22.
Compound `Cc1ncc(OC[C@@]2(c3cccc(F)c3)C[C@H]2C(=O)Nc2ccc(F)cc2)c(C)n1` [Example 92, (1R,2S)-2-{[(2,4-dimethylpyrimidin-5-yl)oxy]methyl}-2-(3-fluorophenyl)-N-(4-fluorophenyl)cyclopropanecarboxamide] showed a negative-log IC50 (pIC50) at OX1 of 7.64. Moreover, the IC50 at OX2 came out at 8 nM.
In the same order, the values of `Cc1ccc(NC(=O)[C@@H]2C[C@@]2(COc2cnc(C)nc2C)c2cccc(F)c2)nc1` [Example 278] are 7.12 and 10 nM.
On to `Cc1ncc(OCC2(c3ccc(F)cc3)CC2C(=O)Nc2ccc(C#N)cn2)c(C)n1` (centres unmarked) [Example 101], for which the pIC50 is 6.54 on OX1 (setting [1]) and 7.08 on OX2.
For `Cc1ncc(OC[C@@]2(c3ccccc3)C[C@H]2C(=O)Nc2cnc(Br)c(C)c2)c(C)n1` [Example 58] the same measures were 5.71 and 7.05.
For `COCc1nc(C)ncc1OC[C@@]1(c2ccc(F)cc2)C[C@H]1C(=O)Nc1ccc(F)c(F)c1` [Example 207, (1R,2S)-N-(3,4-difluorophenyl)-2-(4-fluorophenyl)-2-{[(4-methoxymethyl-2-methylpyrimidin-5-yl)oxy]methyl}cyclopropanecarboxamide] the same measures were 6.96 and 8.05.
For `Cc1ncc(OC[C@@]2(c3cccc(F)c3)C[C@H]2c2nc3ncccc3c(=O)[nH]2)c(C)n1` [Example 312] the same measures were 6.87 and 7.21.
As to `Cc1ncc(OC[C@@]2(c3cccc(F)c3)C[C@H]2C(=O)Nc2ccccn2)c(C)n1` [Example 87], the pIC50 on OX1 was 7.37. In addition, the IC50 on OX2 came to 10 nM.
`Cc1ccc(C2(COc3cnc(C)nc3C)CC2C(=O)Nc2ccc(Cl)cn2)cc1` (centres unmarked) [Example 175] had a pIC50 on OX1 of 7.21. Also, the IC50 on OX2 is 35 nM.
In the same order, the values of `Cc1ccc(C2(COc3cnc(C)nc3C)CC2C(=O)Nc2ccc(F)cn2)cc1` (centres unmarked) [Example 174] are 7.48 and 55 nM.
For `Cc1ncc(NC[C@@]2(c3cccc(F)c3)C[C@H]2C(=O)Nc2ccc(F)cn2)c(C(F)(F)F)n1` [Example 302, (1R,2S)-2-(3-fluorophenyl)-N-(5-fluoropyridin-2-yl)-2-[N-(2-methyl-4-trifluoromethylpyrimidin-5-yl)aminomethyl]cyclopropanecarboxamide], the negative-log IC50 (pIC50) at OX1 (setting [1]) is 8.10; at OX2 it was 8.52.
